The results in this text go back to EPA's ToxRefDB 2.

In series [1] the test system is rat. As to conditions: Combined chronic toxicity/carcinogenicity; wistar; Oral; Feed; dose end: 2 year; group: systemic; systemic / in life observation / body weight / body weight gain + systemic / in life observation / food consumption / food consumption + ….
Series [2] has as its system mouse. As to conditions: Combined chronic toxicity/carcinogenicity, other, Oral, Feed, dose end: 80 week, group: systemic.
For series [3], the system named is rat. As to conditions: Chronic toxicity, Sprague-Dawley, Oral, Feed, dose end: 104 week, group: systemic.
For series [4], the system named is rat. The conditions noted are these: Combined chronic toxicity/carcinogenicity, sprague dawley, Oral, Feed, dose end: 24 month, group: systemic.
Series [5] relates to mouse. As to conditions: Combined chronic toxicity/carcinogenicity, other, Oral, Feed, dose end: 91 week, group: systemic.
The subject of the next series is dog. The conditions noted are these: Subchronic oral toxicity in nonrodent, beagle, Feed, dose end: 26 week, group: systemic, systemic / in life observation / clinical signs / chewing of extremities + systemic / in life observation / clinical signs / muscle ….
Series [6] concerns mouse. As to conditions: Subchronic oral toxicity in rodents, b6c3f1, Gavage/Intubation, dose end: 13 week, group: systemic.
Series [7] relates to rat. As to conditions: Subchronic oral toxicity in rodents, fischer, Gavage/Intubation, dose end: 13 week, group: systemic, systemic / in life observation / body weight / body weight.
The test system of series [8] is mouse. The conditions noted are these: Carcinogenicity, b6c3f1, Oral, Gavage/Intubation, dose end: 2 year, group: systemic.
The subject of series [9] is mouse. As to conditions: Carcinogenicity, cd1, Oral, Feed, dose end: 2 year, group: systemic.
Series [10] relates to rat. As to conditions: Combined chronic toxicity/carcinogenicity, sprague dawley, Oral, Feed, dose end: 24 month, group: systemic. This is another data set of the same source.
The test system of series [11] is rat. The conditions noted are these: Prenatal developmental toxicity study, sprague dawley, Oral, Gavage/Intubation, dose end: 15 GD.
In series [12] the test system is mouse. As to conditions: Carcinogenicity; b6c3f1; Oral; Feed; dose end: 104 week; group: systemic; systemic / in life observation / body weight / body weight.
In series [13] the test system is rat. The conditions noted are these: Subchronic oral toxicity in rodents, fischer, Feed, dose end: 13 week, group: systemic.
Series [14] relates to rat. As to conditions: Carcinogenicity; fischer; Oral; Feed; dose end: 104 week; group: systemic; systemic / in life observation / body weight / body weight + systemic / pathology microscopic / kidney / cytomegaly + systemic / pathology ….
The subject of series [15] is mouse. As to conditions: Subchronic oral toxicity in rodents, b6c3f1, Feed, dose end: 13 week, group: systemic.
Series [16] deals with rat. The conditions noted are these: Prenatal developmental toxicity study; sprague dawley; Oral; Gavage/Intubation; dose end: 19 GD; group: maternal; systemic / in life observation / body weight / body weight gain + systemic / in life observation / food consumption / food consumption + ….
Series [17] concerns rat. The conditions noted are these: Peri- and post-natal toxicity study (Segment III), sprague dawley, Oral, Gavage/Intubation, dose end: 40 PND.
Where [18] appears, read: systemic / in life observation / body weight / body weight + systemic / organ weight / kidney / relative to body weight + systemic / organ ….
[19] abbreviates: systemic / organ weight / liver / relative to body weight.
The mark [20] stands for this setting: systemic / in life observation / body weight / body weight.
Where [21] appears, read: systemic / in life observation / body weight / body weight + systemic / organ weight / brain / relative to body weight + systemic / organ ….
Where [22] appears, read: systemic / in life observation / body weight / body weight + systemic / clinical chemistry / alpha-2 globulin / alpha-2 globulin + systemic….
The mark [23] stands for this setting: systemic / pathology microscopic / liver / granuloma + systemic / pathology microscopic / lymph node / granuloma + systemic / clinical ….
Setting [24] is: systemic / pathology microscopic / liver / granuloma + systemic / pathology microscopic / lymph node / granuloma + systemic / hematology / ….
[25] abbreviates: systemic / pathology microscopic / stomach / inflammation.
The mark [26] stands for this setting: systemic / pathology microscopic / stomach / inflammation + systemic / in life observation / body weight / body weight + systemic / ….
Where [27] appears, read: systemic / pathology microscopic / liver / vacuolization + systemic / pathology microscopic / thyroid gland / hyperplasia.
Where [28] appears, read: systemic / pathology microscopic / liver / vacuolization + systemic / pathology microscopic / thyroid gland / hyperplasia + systemic / ….
The mark [29] stands for this setting: systemic / pathology microscopic / heart / degeneration.
Setting [30] is: systemic / pathology microscopic / heart / degeneration + systemic / pathology microscopic / liver / hemosiderin laden macrophages.
The mark [31] stands for this setting: systemic / pathology microscopic / mammary gland / adenocarcinoma.
Where [32] appears, read: group: developmental, developmental / developmental malformation / bone / incomplete ossification + developmental / developmental malformation / interparietal / ….
The mark [33] stands for this setting: group: maternal, systemic / in life observation / body weight / body weight + systemic / in life observation / food consumption / food consumption.
Setting [34] is: group: maternal, systemic / in life observation / body weight / body weight + systemic / in life observation / food consumption / food consumption + systemic….
[35] abbreviates: systemic / in life observation / food consumption / food consumption.
[36] abbreviates: group: maternal, reproductive / reproductive performance / estrous cycle / corpora lutea.
The mark [37] stands for this setting: group: parental, systemic / organ weight / liver / absolute + systemic / organ weight / thyroid gland / absolute + systemic / pathology microscopic / ovary….
[38] abbreviates: group: parental, systemic / organ weight / liver / absolute + systemic / pathology microscopic / ovary / follicle count + systemic / pathology microscopic / ….

For orientation: LOAEL means the lowest dose or exposure tested at which an adverse effect was seen. Usually NOAEL stands for the highest dose or exposure tested at which no adverse effect was seen.

As to `C/C=C/C=C/C(=O)O` [Sorbic acid], in the series with rat [1], the LEL amounted to 5000 mg/kg/day, the LOAEL was greater than 5000 mg/kg/day, the NEL turned out to be 750 mg/kg/day and the NOAEL is no less than 5000 mg/kg/day. Moreover, in the series with mouse [2] (setting [18]), the LOAEL was greater than 15000 mg/kg/day and the NOAEL was no less than 15000 mg/kg/day. Further, in the series with mouse [2] (setting [19]), the LEL amounted to 1500 mg/kg/day and the NEL is less than 1500 mg/kg/day.

Consider `CC(C)[C@@H](C(=O)O[C@@H](C#N)c1cccc(Oc2ccccc2)c1)c1ccc(Cl)cc1` [Fenvalerate], for which the LOAEL is 50 mg/kg/day with rat [3] (setting [20]), greater than 25 mg/kg/day in the series on rat [4] (setting [22]), 15 mg/kg/day with mouse [5] (setting [24]) and 6.25 mg/kg/day in the series with dog. Also, the NOAEL in the series on rat [3] (setting [20]) was less than 50 mg/kg/day; in the series on rat [4] (setting [22]) it was no less than 25 mg/kg/day; in the series on mouse [5] (setting [23]), 4.5 mg/kg/day; with dog, less than 6.25 mg/kg/day. Also, the LEL in the series with rat [3] (setting [21]) turned out to be 50 mg/kg/day; in the series with rat [4] (setting [20]), 1.25 mg/kg/day; with mouse [5] (setting [24]), 15 mg/kg/day; in the series with dog it was 6.25 mg/kg/day. Also, the NEL in the series on rat [3] (setting [21]) is less than 50 mg/kg/day; in the series with rat [4] (systemic / in life observation / body weight / body weight + systemic / clinical chemistry / alpha-2 globulin / alpha-2 globulin), 0.25 mg/kg/day; with mouse [5] (setting [23]), 4.5 mg/kg/day; in the series with dog it was less than 6.25 mg/kg/day.

For the compound `CCCCC(CC)COP(=O)(OCC(CC)CCCC)OCC(CC)CCCC` (stereo not given) [Tris(2-ethylhexyl) phosphate], the LEL with mouse [6] (setting [25]) was found to be 500 mg/kg/day; in the series on rat [7] it was 2000 mg/kg/day; in the series with mouse [8] (setting [27]) it was 500 mg/kg/day. The NEL in the series with mouse [6] (setting [25]) is less than 500 mg/kg/day; in the series on rat [7] it was 1000 mg/kg/day; with mouse [8] (setting [27]) it was less than 500 mg/kg/day. Further, the LOAEL in the series on mouse [6] (setting [26]) was 8000 mg/kg/day; in the series on rat [7] it was 2000 mg/kg/day; with mouse [8] (setting [28]), greater than 1000 mg/kg/day. Besides, the NOAEL in the series with mouse [6] (setting [26]) was 4000 mg/kg/day; in the series on rat [7], 1000 mg/kg/day; in the series on mouse [8] (setting [28]) it was no less than 1000 mg/kg/day.

Take `CC(C)Nc1nc(Cl)nc(NC(C)C)n1` [Propazine]: the NEL with mouse [9] (setting [29]) is 150 mg/kg/day; with rat [10] (setting [31]), less than 0.2 mg/kg/day; in the series with rat [11] (setting [32]), 10 mg/kg/day; with rat [11] (setting [34]), 10 mg/kg/day. Moreover, the NOAEL in the series with mouse [9] (setting [29]) came out at 150 mg/kg/day; in the series with rat [10] (systemic / in life observation / body weight / body weight + systemic / in life observation / body weight / body weight gain), 5.2 mg/kg/day; with rat [11] (setting [32]) it was 10 mg/kg/day; in the series on rat [11] (setting [34]) it was 10 mg/kg/day. In addition, the LEL in the series on mouse [9] (setting [30]) amounted to 450 mg/kg/day; in the series on rat [10] (setting [31]) it was 0.2 mg/kg/day; with rat [11] (group: developmental, developmental / developmental malformation / interparietal / incomplete ossification), 100 mg/kg/day; with rat [11] (setting [33]), 100 mg/kg/day. Besides, the LOAEL with mouse [9] (setting [30]) was 450 mg/kg/day; in the series with rat [10] (setting [20]) it was 51 mg/kg/day; in the series on rat [11] (setting [32]), 100 mg/kg/day; with rat [11] (setting [33]), 100 mg/kg/day.

On to `CN(C)C(=O)Nc1ccc(Cl)cc1` [Monuron], for which the LEL stood at 750 mg/kg/day in the series with mouse [12], 37.5 mg/kg/day in the series with rat [13] (setting [35]), 37.5 mg/kg/day in the series on rat [14] and 450 mg/kg/day in the series on mouse [15] (setting [20]). For the same compound, the LOAEL in the series on mouse [12] was determined as 750 mg/kg/day; in the series on rat [13] (setting [20]) it was 75 mg/kg/day; in the series on rat [14] it was 75 mg/kg/day; in the series with mouse [15] (setting [20]), 1800 mg/kg/day. Moreover, the NEL is less than 750 mg/kg/day with mouse [12], less than 37.5 mg/kg/day with rat [13] (setting [35]), less than 37.5 mg/kg/day in the series on rat [14] and less than 450 mg/kg/day in the series with mouse [15] (setting [20]). Besides, the NOAEL in the series with mouse [12] was less than 750 mg/kg/day; in the series on rat [13] (systemic / in life observation / body weight / body weight + systemic / in life observation / food consumption / food consumption + systemic…), 37.5 mg/kg/day; in the series with rat [14], 37.5 mg/kg/day; in the series with mouse [15] (systemic / in life observation / body weight / body weight + systemic / in life observation / mortality / mortality + systemic / pathology …), 900 mg/kg/day.

Consider `CCCCOC(=O)c1ccc(O)cc1` [Butylparaben], for which, in the series with rat [16], the LEL is 1000 mg/kg/day, the LOAEL was greater than 1000 mg/kg/day, the NEL worked out at 100 mg/kg/day and the NOAEL was no less than 1000 mg/kg/day. In the series with rat [17] (setting [36]), the LEL amounted to 62.5 mg/kg/day, the LOAEL was greater than 1000 mg/kg/day, the NEL is less than 62.5 mg/kg/day and the NOAEL was no less than 1000 mg/kg/day. Also, in the series with rat [17] (setting [37]), the LOAEL is greater than 1000 mg/kg/day and the NOAEL was no less than 1000 mg/kg/day. For the same compound, in the series with rat [17] (setting [38]), the LEL was 62.5 mg/kg/day and the NEL is less than 62.5 mg/kg/day.
